The values below come from patent US9340478B2, “Cooling agent and TRPM8 activator” (Kao Corporation, priority 2011, dated 2016).

For the assay, the target named is T1, human TRPM8 (Homo sapiens, UniProt Q7Z2W7).
T1 construct: A full-length human TRPM8 gene was amplified from human prostatic tissue total RNA; expressed in transfected cells; host or cells: HEK293
T1 sequence (Q7Z2W7 whole entry): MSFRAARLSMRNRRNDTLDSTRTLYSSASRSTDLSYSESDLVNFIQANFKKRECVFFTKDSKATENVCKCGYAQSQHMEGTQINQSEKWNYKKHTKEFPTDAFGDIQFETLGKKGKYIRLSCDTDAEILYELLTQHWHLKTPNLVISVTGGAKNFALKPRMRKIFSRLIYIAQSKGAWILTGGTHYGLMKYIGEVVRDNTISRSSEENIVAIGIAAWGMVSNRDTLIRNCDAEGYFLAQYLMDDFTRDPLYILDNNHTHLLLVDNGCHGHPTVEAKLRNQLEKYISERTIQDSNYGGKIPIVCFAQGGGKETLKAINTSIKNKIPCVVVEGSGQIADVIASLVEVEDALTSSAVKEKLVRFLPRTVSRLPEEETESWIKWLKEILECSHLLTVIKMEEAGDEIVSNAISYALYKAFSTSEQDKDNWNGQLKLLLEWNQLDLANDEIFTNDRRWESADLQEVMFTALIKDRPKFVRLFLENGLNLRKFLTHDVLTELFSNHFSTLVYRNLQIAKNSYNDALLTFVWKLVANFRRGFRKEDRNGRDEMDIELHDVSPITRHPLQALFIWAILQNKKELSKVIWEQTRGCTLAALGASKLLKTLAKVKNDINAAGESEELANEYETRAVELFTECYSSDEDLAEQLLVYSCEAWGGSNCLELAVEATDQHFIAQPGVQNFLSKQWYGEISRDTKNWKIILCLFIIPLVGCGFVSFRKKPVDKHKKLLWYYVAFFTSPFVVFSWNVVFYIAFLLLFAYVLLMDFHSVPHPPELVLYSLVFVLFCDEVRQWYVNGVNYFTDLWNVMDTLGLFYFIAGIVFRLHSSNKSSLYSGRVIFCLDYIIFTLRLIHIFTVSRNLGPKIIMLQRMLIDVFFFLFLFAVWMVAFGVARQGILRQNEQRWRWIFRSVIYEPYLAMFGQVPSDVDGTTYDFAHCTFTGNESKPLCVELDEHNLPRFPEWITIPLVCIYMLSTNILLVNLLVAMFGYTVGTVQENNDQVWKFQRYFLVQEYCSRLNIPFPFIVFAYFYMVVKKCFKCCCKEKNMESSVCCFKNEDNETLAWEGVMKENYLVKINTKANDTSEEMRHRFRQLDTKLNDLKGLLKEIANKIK
In words: TRPM8 activating action, fluorescent calcium imaging in HEK293 cell line stably expressing human TRPM8. To be noted: HEK293 cells expressing human TRPM8; Fluo4 calcium imaging at 32° C.; 1 nM to 100 μM; Hill's equation fit. The format is cell-based. As to the method:
The EC50 value in connection with the TRPM8 activating action of a test sample was measured according to the following procedure.
(1) Production of Cell Line Stably Expressing Human TRPM8
In order to produce a HEK293 cell line stably expressing human TRPM8, cloning of human TRPM8 gene was carried out. A full-length human TRPM8 gene was amplified from human prostatic tissue total RNA (manufactured by Cosmobio Co., Ltd.) using an RT-PCR method.
The PCR product thus obtained was cloned into an entry vector pENTR-D/TOPO (manufactured by Invitrogen, Inc.), and then was sub-cloned into pCDNA3.2-V5/DEST (manufactured by Invitrogen, Inc.), The vector was transduced into HEK293 cells by means of LIPOFECTAMINE 2000 (manufactured by Invitrogen, Inc.). The transduced cells were proliferated in DMEM medium containing 450 μg/mL of G-418 (Promega Corp.) and screened.
Measurement of the activity of TRPM8 transduced into HEK293 cells was carried out by a fluorescent calcium imaging method.
First, the cultured TRPM8 expressing cells were seeded (30,000 cells/well) in a 96-well plate coated with poly-D-lysine (manufactured by BD Biosciences Co.), the cells were incubated overnight at 37° C., and then the culture fluid was removed. Fluo4-AM liquid (manufactured by Dojindo Molecular Technologies, Inc.; CALCIUM KIT II) was added thereto, and the cells were incubated for 30 to 60 minutes at 37° C. Thereafter, the 96-well plate was mounted on a fluorescence plate reader (FDSS3000; manufactured by Hamamatsu Photonics K.K.), and while the temperature inside the apparatus chamber was maintained at 32° C., a fluorescent image made by Fluo4 when excited at an excitation wavelength of 480 nm, was captured at a detection wavelength of 520 nm using a CCD camera.
Measurement was carried out at every one second for 4 minutes in total. 15 seconds after the initiation of measurement, a test sample (prepared by dissolving each of the compounds indicated in the following Table 1 in ethanol) was added through a dispenser equipped in FDSS3000, and the activity of TRPM8 was evaluated based on the change in fluorescence intensity.
(3) Evaluation of TRPM8 Activation
For the TRPM8 activity, the intrinsic fluorescence was excluded using the following formula, so as to eliminate the influence of intrinsic fluorescence caused by the test sample. Fluorescence intensity excluding intrinsic fluorescence(Fsub)=(Fluorescence intensity of TRPM8 expressing cells at each time point)−{(fluorescence intensity of HEK293 cells at each time point)−(fluorescence intensity of HEK293 cells at the time of measurement initiation)}
Furthermore, the TRPM8 activating action induced by each sample was evaluated using the peak of the fluorescence intensity ratio after the addition of the test sample. The fluorescence intensity ratio was calculated using the following formula. Fluorescence intensity ratio=Fsub at each time point/at the time of measurement initiation
The evaluation was carried out using two wells per each treated group, and the average value was used.
The TRPM8 activating action of each test sample was evaluated at a final concentration in the range of 1 nM to 100 μM, and a dose dependent curve approximating Hill's equation by the least square method was determined.
As usually defined, the EC50 is the midpoint of the concentration-response curve. Take `C=CCc1cc(OC)c(OC(C)C(OCCCCCC)c2ccc(O)c(OC)c2)c(OC)c1` (centres unmarked) [Mixture (26), Δ8′-7-Hexoxy-4-hydroxy-3,3′,5′-trimethoxy-8-O-4′-neolignan]: the half-maximal effective concentration (EC50) stood at 218 nM.

Regarding `C=CCc1cc(OC)c(OC(C)C(OCC)c2ccc(O)c(OC)c2)c(OC)c1` (centres unmarked) [Mixture (15), Δ8′-7-ethoxy-4-hydroxy-3,3′,5′-trimethoxy-8-O-4′-neolignan], the EC50 stood at 309 nM. As for `C=CCc1cc(OC)c(OC(C)C(OC(C)C)c2ccc(O)c(OC)c2)c(OC)c1` (centres unmarked) [Mixture (24), Δ8′-7-isopropoxy-4-hydroxy-3,3′,5′-trimethoxy-8-O-4′-neolignan], the figure is 75 nM; as for `C=CCc1cc(OC)c(OC(C)C(OCC)c2ccc(O)c(OC)c2)c(OC)c1` (single isomer, unassigned) [Threo-form (2), threo-Δ8′-7-ethoxy-4-hydroxy-3,3′,5′-trimethoxy-8-O-4′-neolignan], 199 nM; as for `C=CCc1cc(OC)c(OC(C)C(OCC)c2ccc(O)c(OC)c2)c(OC)c1` (single isomer, unassigned) [Erythro-form (1), erythro-Δ8′-7-ethoxy-4-hydroxy-3,3′,5′-trimethoxy-8-O-4′-neolignan], 1570 nM. Turning to `C=CCc1cc(OC)c(OC(C)C(OCCOCCCC)c2ccc(O)c(OC)c2)c(OC)c1` (centres unmarked) [Mixture (32), Δ8′-7-Oxybutoxyethyl-4-hydroxy-3,3′,5′-trimethoxy-8-O-4′-neolignan], the 50% effective concentration (EC50) is 131 nM. As for `C=CCc1cc(OC)c(OC(C)C(OCc2ccccc2)c2ccc(O)c(OC)c2)c(OC)c1` (centres unmarked) [Mixture (30), Δ8′-7-Benzyloxy-4-hydroxy-3,3′,5′-trimethoxy-8-O-4′-neolignan], the figure is 144 nM. In the case of `C=CCc1cc(OC)c(OC(C)C(OC2CCCCC2)c2ccc(O)c(OC)c2)c(OC)c1` (centres unmarked) [Mixture (29), Δ8′-7-Cyclohexoxy-4-hydroxy-3,3′,5′-trimethoxy-8-O-4′-neolignan] it was 45 nM. As for `C/C=C/c1ccc(OC(C)C(OCC)c2ccc(O)c(OC)c2)c(OC)c1` (centres unmarked) [Mixture (36), Δ8′-7-ethoxy-4-hydroxy-3,3′-dimethoxy-1′-propenyl-8-O-4′-neolignan], the figure is 12200 nM; as for `C=CCc1cc(OC)c(O[C@@H](C)[C@H](OC(C)=O)c2ccc(O)c(OC)c2)c(OC)c1` (relative stereo) [Erythro-form (23), erythro-Δ8′-7-acetyl-4-hydroxy-3,3′,5′-trimethoxy-8-O-4′-neolignan], 2600 nM. With `C=CCc1cc(OC)c(O[C@H](C)[C@H](OCC)c2ccc(O)c(OC)c2)c(OC)c1` [7R8R-form (2a), (7R,8R)-Δ8′-7-ethoxy-4-hydroxy-3,3′,5′-trimethoxy-8-O-4′-neolignan], the EC50 came out at 610 nM.

For `CCOC(c1ccc(O)c(OC)c1)C(C)Oc1ccccc1OC` (centres unmarked) [Mixture (38), 4-[1-ethoxy-2-(2-methoxyphenoxy)propyl]-2-methoxyphenol], the 50% effective concentration (EC50) was 56200 nM. As for `C=CCc1cc(OC)c(O[C@@H](C)[C@H](OCCCC)c2ccc(O)c(OC)c2)c(OC)c1` (relative stereo) [Erythro-form (19), Erythro-Δ8′-7-butoxy-4-hydroxy-3,3′,5′-trimethoxy-8-O-4′-neolignan], the EC50 came out at 581 nM.

Turning to `C=CCc1cc(OC)c(OC(C)C(OC)c2ccc(O)c(OC)c2)c(OC)c1` (mixture of isomers) [Mixture (18), Δ8′-4-hydroxy-3,3′,5′,7-tetramethoxy-8-O-4′-neolignan], the EC50 turned out to be 2410 nM. In the case of `C=CCc1cc(OC)c(O[C@H](C)[C@@H](OCC)c2ccc(O)c(OC)c2)c(OC)c1` [7S8R-form (1b), (7S,8R)-Δ8′-7-ethoxy-4-hydroxy-3,3′,5′-trimethoxy-8-O-4′-neolignan] it was 981 nM; in that of `C=CCc1cc(OC)c(OC(C)C(OCC(C)C)c2ccc(O)c(OC)c2)c(OC)c1` (centres unmarked) [Mixture (25), Δ8′-7-Isobutoxy-4-hydroxy-3,3′,5′-trimethoxy-8-O-4′-neolignan], 113 nM; in that of `C=CCc1cc(OC)c(O[C@H](C)[C@H](OCCCC)c2ccc(O)c(OC)c2)c(OC)c1` (relative stereo) [Threo-form (20), Threo-Δ8′-7-butoxy-4-hydroxy-3,3′,5′-trimethoxy-8-O-4′-neolignan], 43 nM. On to `C=CCc1cc(OC)c(O[C@@H](C)[C@@H](OCC)c2ccc(O)c(OC)c2)c(OC)c1` [7S8S-form (2b), (7S,8S)-Δ8′-7-ethoxy-4-hydroxy-3,3′,5′-trimethoxy-8-O-4′-neolignan], for which the concentration giving a half-maximal response (EC50) worked out at 87 nM. As for `C=CCc1cc(OC)c(OC(C)C(OCCCCCCCCCC)c2ccc(O)c(OC)c2)c(OC)c1` (centres unmarked) [Mixture (28), Δ8′-7-Decoxy-4-hydroxy-3,3′,5′-trimethoxy-8-O-4′-neolignan], the figure is 61 nM; as for `C=CCc1ccc(OC(C)Cc2ccc(O)c(OC)c2)c(OC)c1` (centres unmarked) [Mixture (34), Δ8′-4-Hydroxy-3,3′-dimethoxy-8-O-4′-neolignan], 5850 nM; as for `C=CCc1cc(OC)c(OC(C)C(OCCCCCCCC)c2ccc(O)c(OC)c2)c(OC)c1` (centres unmarked) [Mixture (27), Δ8′-7-Octoxy-4-hydroxy-3,3′,5′-trimethoxy-8-O-4′-neolignan], 88 nM. As for `C=CCc1cc(OC)c(O[C@@H](C)[C@H](OCC)c2ccc(O)c(OC)c2)c(OC)c1` [7R8S-form (1a), (7R,8S)-Δ8′-7-ethoxy-4-hydroxy-3,3′,5-trimethoxy-8-O-4′-neolignan], the EC50 turned out to be 1230 nM. As to `C=CCc1cc(OC)c(OC(C)C(OC(C)(C)C)c2ccc(O)c(OC)c2)c(OC)c1` (centres unmarked) [Mixture (31), Δ8′-7-t-Butoxy-4-hydroxy-3,3′,5′-trimethoxy-8-O-4′-neolignan], the 50% effective concentration (EC50) came out at 40 nM.
